In paper PMC6472409, “Dishevelled-3 conformation dynamics analyzed by FRET-based biosensors reveals a key role of casein kinase 1” (Nature Communications, 2019):
Several values for one entry are separate records, joined by “and”; a condition that tells them apart may be missing. Equal entries are not always repeated.

Key:
Wnt/β-catenin pathway = experiment: Dual Luciferase TopFlash/Renilla Reporter Assay; type: cell-based, human; conditions: for TopFlash relative to ctrl (= 1): Suppl. Fig. 2a; for TopFlash FlAsH III (CK1e-/-), relative to ctrl (= 1): Suppl. Fig. 4f, CK1e-/- cells
Description: Cells were transfected 24 h after seeding with 0.1 μg of Super8X TopFlash construct, 0.1 μg of Renilla luciferase construct, and 0.1 μg of corresponding plasmids per well for 6 h in a 24-well plate. As for the ECFP-DVL3 FIII wt stable cell lines, transfection was followed by 4 h induction of tetracycline (1 µg/ml) and 8 h treatment of CM:DMEM (1:1 ratio). For performing this assay, Promega Dual Luciferase assay kit (Promega, #E1910) was used according to the manufacturer’s instructions. Luminescence was measured by a Hidex Bioscan Plate Chameleon Luminometer. Results are depicted as the ratio of TopFlash and Renilla signal (TopFlash fold induction), which was normalized for each experiment to certain control column (normalized TopFlash fold induction). Data were analyzed by MS Excel 2007 and GraphPad Prism 6 and results were shown as the means ± S.D. (number of experiments indicated ad hoc).

[1] = tested on: DVL3 subcellular localization in HEK293 cells; experiment: DVL3 subcellular localization (punctae/even), immunofluorescence; type: cell-based, human
[2] = tested on: DVL3 membrane recruitment by FZD6 in HEK293 cells; experiment: FZD6-dependent membrane recruitment of DVL3, immunofluorescence; type: cell-based, human; design: key to Non-recruited (DVL3 membrane recruitment): number of cells out of 100 positive cells scored; conditions: Fig 8c
From the text: First, we analyzed the preferred subcellular localization of DVL3 (as introduced in Fig. 2c)[10],[14]. […] Next, we investigated if DVL3 conformation correlates with the capacity of DVL3 to be recruited by FZD6, a key Wnt receptor, to the plasma membrane. For this purpose, we co-expressed FZD6 and analyzed membrane recruitment of DVL3 in FZD6-positive cells by immunofluorescence. Individual cells were categorized as: not recruited (Fig. 8b, no DVL3 in the membrane), partially recruited (clear membrane as well as cytoplasmic localization), and fully recruited (predominantly plasma membrane localization, Fig. 8c, left). […] In the last readout we analyzed the capacity of DVL3 to activate downstream Wnt/β-catenin pathway monitored by TopFlash reporter assay (Fig. 8d). […] On the other hand, under conditions that favor the open conformation both activation as well as inhibition of the Wnt/β-catenin pathway was evident.
For immunofluorescence, cells were seeded (40,000 per well) on 24-well plates with gelatin-coated coverslips and transfected, as indicated, with 0.1 μg of each corresponding plasmid (0.3 μg of mCherry-FZD6) for 6 h. For western blotting and Dual Luciferase TopFlash/Renilla Reporter Assay, cells were seeded (60,000 per well) directly on 24-well plates with 0.1 μg of each corresponding plasmid (if not indicated otherwise) for 6 h. For coimmunoprecipitation, cells were seeded (4.4 × 10^6) on 10-cm dishes and transfected with 1 μg of each corresponding plasmid. The next day after seeding, cells were transfected using polyethyleneimine (PEI) in a stoichiometry of 6 μl of PEI per 1 μg of DNA for 6 h and were harvested 24 h after transfection. The following plasmids used in HEK293 cells have been described previously: FLAG-DVL3 wt[47], CK1ϵ wt[48], mCherry-FZD6 (ref. [37]), and dominant-negative CK1ϵ P3 (ref. [33]). The ECFP-DVL3 wt plasmid was made by Gateway Technology (via LR recombination according to the manufacturer’s instructions; Thermo Fisher Scientific, #11791020) from the donor plasmid pDONR221 DVL3 (DNASU, #FLH178665.01x) and the destination plasmid pdECFP (LMBP, #4548). The HA-DVL3 wt plasmid was made by Gateway Technology from the donor plasmid pDONR221 DVL3 (DNASU, #FLH178665.01x) and the destination plasmid pcDNA3.1 N-term HA (gift from Erich Nigg).
Cells were seeded on gelatin-coated coverslips in 24-well plates and were transfected the next day. Cells were fixed 24 h later in fresh 4% paraformaldehyde, permeabilized with 0.5% Triton X-100, blocked with PBS/BSA/Triton/Azide buffer (PBTA) [3% (wt/vol) BSA, 0.25% Triton, 0.01% NaN3] for 1 h, and incubated overnight with primary antibodies (in dilution 1:500) in PBTA at 4 °C. The next day, the coverslips were washed in PBS and incubated with secondary antibodies conjugated to Alexa Fluor 488 (Invitrogen A11001) or/and Alexa Fluor 594 (Invitrogen A11058) (all in dilution 1:1000), washed with PBS [in case of samples containing FLAG-DVL3 WT and derived variants stained with DAPI (1:5000)], and all coverslips were mounted on microscopic slides. Cells were then visualized on an Olympus IX51 fluorescent microscope using ×40 air or ×100 oil objectives and/or an Olympus Fluoview 500 confocal laser scanning microscope IX71 using ×100 oil objective. One hundred positive cells per experiment (n = 3) were analyzed and scored according to their phenotype into two/three categories (punctae/even); or non-recruited/partially/fully recruited for FZD6-dependent recruitment of DVL3. The antibodies used were as follows: anti-FLAG M2 (Sigma-Aldrich, #F1804), anti-DVL3 (Santa Cruz, #sc-8027), anti-CK1ɛ (Santa Cruz, #sc-6471), anti-RFP (Chromotek, #5h9) and anti-GFP (Fitzgerald, #20R-GR-011).

Xenopus laevis embryos = experiment: Convergent extension (CE) / neural tube defects in Xenopus embryos (Wnt/PCP readout); type: in vivo; conditions: Dorsal injection, 100pg/embryo
From the text: In the cell culture model we were unable to dissect the effects on the non-canonical Wnt/PCP pathway, and as such we turned into the Xenopus embryo model. Alterations in the Wnt/PCP pathway activity result in the convergent extension (CE) defects (Supplementary Fig. 7b, right). In order to avoid any artifacts, we tested the constitutively open and closed variants of xDvl3 based on point mutations or small deletions—namely open xDvl3 ΔC and xDvl3 (S267E/S310E) and closedxDvl3 (S267A/S310A). Phosphorylation sites in the PDZ domain are fully conserved between human and Xenopus (for alignment see Supplementary Fig. 5a) and hDVL3 S268/S311 corresponds to xDvl3 S267/S310.
The work with Xenopus laevis was carried out according to the German animal use and care law (Das Tierschutzgesetz) and approved by the local authorities and committees (animal care and housing approval: I/39/EE006, Veterinäramt Erlangen; animal experiments approval: 54-2532.2-8/08, German state administration Bavaria/Regierung von Mittelfranken). The generation and cultivation of Xenopus embryos was done in accordance with general protocols and staged after the normal table of Niewkoop and Faber (1994)[53].
RNA for microinjection was synthesized from plasmids pCS2 myc-xDvl3 (ref. [54]), pCS2 myc-xDvl3 ΔALL (lacking sequence corresponding to aa 338–350, 609–619, and 693–705 in xDvl3), pCS2 xDvl3 (S267A/S310A), pCS2 xDvl3 (S267E/S310E), pCS2 xDvl3 ΔC, and pCS2 xCK1ε[55], respectively, using the mMessage mMachine Kit (Ambion). Embryos were injected at the four-cell stage either into the two ventral blastomeres for testing the constructs' ability to induce a secondary body axis. Injection amounts of synthetic RNA were 500 pg for myc-xDvl3 wild type and the myc-xDvl3 ∆ALL variant, and 150 pg for xCK1ε RNA. For the analysis of morphogenetic defects, four-cell stage embryos were injected into the two dorsal blastomeres with 100 pg myc-xDvl3 RNA and the corresponding variant RNAs. After injection, the embryos were cultivated until they reached stage 26, fixed, and analyzed for axis duplication or morphogenetic defects, respectively.

[3] = sensor FlAsH III, replicate of grid row r5
[4] = sensor FlAsH III, replicate of grid row r6
[5] = sensor FlAsH III, replicate of grid row r7
[6] = Fig 2c, DVL3-FLAG, 10 μM inhibitor, replicate 1, 100 cells
[7] = Fig 8b, ECFP-DVL3 wt, HEK293 wt, inhibitor, exp1-exp3, 100 cells each, listed as INH

For `Nc1nccc(-c2c(-c3ccc(F)cc3)ncn2C2CCCCC2)n1` [PF670462, reference compound], the “TopFlash/Renilla activation, in words” value (Wnt/β-catenin pathway; DVL3 wt + inhibitor, HEK293 cells, Fig 8d) was “no (or negligible) TopFlash/Renilla activation”, the “TopFlash relative to DVL3 wt (= 1)” value (Wnt/β-catenin pathway; Fig 8d, replicate of grid row r4) was 0.13 and the “TopFlash relative to DVL3 wt (= 1)” value (Wnt/β-catenin pathway; Fig 8d, replicate of grid row r5) was 0.1. The “TopFlash relative to DVL3 wt (= 1)” value (Wnt/β-catenin pathway; Fig 8d, replicate of grid row r6) was 0.2, the “TopFlash relative to ctrl (= 1)” value (Wnt/β-catenin pathway; sensor FlAsH I, replicate of grid row r5) was 0.09288 and the “TopFlash relative to ctrl (= 1)” value (Wnt/β-catenin pathway; sensor FlAsH I, replicate of grid row r6) was 0.06555. For the same molecule, the “TopFlash relative to ctrl (= 1)” value (Wnt/β-catenin pathway; sensor FlAsH I, replicate of grid row r7) was 0.095, the “TopFlash relative to ctrl (= 1)” value (Wnt/β-catenin pathway; sensor FlAsH II, replicate of grid row r5) was 0.04123 and the “TopFlash relative to ctrl (= 1)” value (Wnt/β-catenin pathway; sensor FlAsH II, replicate of grid row r6) was 0.0401. The “TopFlash relative to ctrl (= 1)” value (Wnt/β-catenin pathway; sensor FlAsH II, replicate of grid row r7) was 0.09362, the “TopFlash relative to ctrl (= 1)” value (Wnt/β-catenin pathway; [3]) was 0.07646 and the “TopFlash relative to ctrl (= 1)” value (Wnt/β-catenin pathway; [4]) was 0.1238. For the same molecule, the “TopFlash relative to ctrl (= 1)” value (Wnt/β-catenin pathway; [5]) was 0.1277, the “TopFlash relative to ctrl (= 1)” value (Wnt/β-catenin pathway; sensor FlAsH IV, replicate of grid row r5) was 0.0466 and the “TopFlash relative to ctrl (= 1)” value (Wnt/β-catenin pathway; sensor FlAsH IV, replicate of grid row r6) was 0.04626. The “TopFlash relative to ctrl (= 1)” value (Wnt/β-catenin pathway; sensor FlAsH IV, replicate of grid row r7) was 0.05626, the “TopFlash FlAsH III (CK1e-/-), relative to ctrl (= 1)” value (Wnt/β-catenin pathway; [3]) was 0.8229 and the “TopFlash FlAsH III (CK1e-/-), relative to ctrl (= 1)” value (Wnt/β-catenin pathway; [4]) was 0.6189. The “TopFlash FlAsH III (CK1e-/-), relative to ctrl (= 1)” value (Wnt/β-catenin pathway; [5]) was 1.097, the “Even (%)” value [1, 6] was 1% and the “Punctae (%)” value [1, 6] was 99%. The “Punctae (%)” value ([1]; Fig 2c, DVL3-FLAG, 10 μM inhibitor, replicate 2, 100 cells) was 98%, the “Punctae (%)” value ([1]; Fig 2c, DVL3-FLAG, 10 μM inhibitor, replicate 3, 100 cells) was 99% and the “Even (%)” value [1, 7] was 5% and 11% and 8%. For the same molecule, the “Punctae (%)” value [1, 7] was 95% and 89% and 92%, the “Fully recruited (DVL3 membrane recruitment)” value (from here on “Fully recruited”) ([2]; exp1) was 1 and the “Non-recruited (DVL3 membrane recruitment)” value (“Non-recruited” below) ([2]; exp1) was 77. The “Partially recruited (DVL3 membrane recruitment)” value (“Partially recruited” for short) ([2]; exp1) was 22, the “Fully recruited” value ([2]; exp2) was 10 and the “Non-recruited” value ([2]; exp2) was 66. For the same molecule, the “Partially recruited” value ([2]; exp2) was 24, the “Fully recruited” value ([2]; exp3) was 15 and the “Non-recruited” value ([2]; exp3) was 59. The “Partially recruited” value ([2]; exp3) was 26.

B1: WT-Dvl3 (protein, UniProt Q92997 1-716, looked up)
Segment polarity protein …: MGETKIIYHLDGQETPYLVKLPLPAERVTLADFKGVLQRPSYKFFFKSMDDDFGVVKEEISDDNAKLPCFNGRVVSWLVSAEGSHPDPAPFCADNPSELPPPMERTGGIGDSRPPSFHPHAGGGSQENLDNDTETDSLVSAQRERPRRRDGPEHATRLNGTAKGERRREPGGYDSSSTLMSSELETTSFFDSDEDDSTSRFSSSTEQSSASRLMRRHKRRRRKQKVSRIERSSSFSSITDSTMSLNIITVTLNMEKYNFLGISIVGQSNERGDGGIYIGSIMKGGAVAADGRIEPGDMLLQVNEINFENMSNDDAVRVLREIVHKPGPITLTVAKCWDPSPRGCFTLPRSEPIRPIDPAAWVSHTAAMTGTFPAYGMSPSLSTITSTSSSITSSIPDTERLDDFHLSIHSDMAAIVKAMASPESGLEVRDRMWLKITIPNAFIGSDVVDWLYHNVEGFTDRREARKYASNLLKAGFIRHTVNKITFSEQCYYIFGDLCGNMANLSLHDHDGSSGASDQDTLAPLPHPGAAPWPMAFPYQYPPPPHPYNPHPGFPELGYSYGGGSASSQHSEGSRSSGSNRSGSDRRKEKDPKAGDSKSGGSGSESDHTTRSSLRGPRERAPSERSGPAASEHSHRSHHSLASSLRSHHTHPSYGPPGVPPLYGPPMLMMPPPPAAMGPPGAPPGRDLASVPPELTASRQSFRMAMGNPSEFFVDVM
For B1, the “open neural tube (number of embryos)” value (Xenopus laevis embryos; 1. Injection) was 3, the “open neural tube (number of embryos)” value (Xenopus laevis embryos; 2. Injection) was 1 and the “shortened AP axis (number of embryos)” value (Xenopus laevis embryos; 2. Injection) was 0. The “open neural tube (number of embryos)” value (Xenopus laevis embryos; 3. Injection) was 0, the “shortened AP axis (number of embryos)” value (Xenopus laevis embryos; 3. Injection) was 0 and the “open NT (number of embryos)” value (Xenopus laevis embryos; Graph: sum of injections 1-3) was 4.
